# Values joined by “and” are separate entries in the source; they are usually repeats but may differ in a detail not shown here. Identical values can stand only once.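 Grown in 96-well plates, cells were treated for 48 hours with each compound at five concentrations. Insufficient inhibition: endpoint recorded as highest concentration tested. GI50: concentration for 50% inhibition of growth. The concentration for full growth arrest is given as TGI.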
# Legend:
# Test in all cases: NCI tumour cell line growth inhibition, 48 h
# DLD-1 colon = system: DLD-1 colon
# DMS 114 small cell lung = system: DMS 114 small cell lung
# DMS 273 small cell lung = system: DMS 273 small cell lung
# KM20L2 colon = system: KM20L2 colon
# LXFL 529 NSCLC = system: LXFL 529 NSCLC
# M19-MEL melanoma = system: M19-MEL melanoma
# SNB-78 CNS = system: SNB-78 CNS
# XF 498 CNS = system: XF 498 CNS
# P388 leukemia = system: P388 leukemia
# P388/ADR leukemia = system: P388/ADR leukemia
# SN12K1 renal = system: SN12K1 renal
# RXF-631 renal = system: RXF-631 renal
Compound,TGI (DLD-1 colon),GI50 (DMS 114 small cell lung),TGI (DMS 114 small cell lung),TGI (DMS 273 small cell lung),TGI (KM20L2 colon),TGI (LXFL 529 NSCLC),TGI (M19-MEL melanoma),TGI (SNB-78 CNS),GI50 (XF 498 CNS),TGI (XF 498 CNS),TGI (P388 leukemia),TGI (P388/ADR leukemia),TGI (SN12K1 renal),TGI (RXF-631 renal)
CSC1CC2C(CC1(C)O)C2(C)C (stereo not drawn),> 100 µM,15.7 µM and > 100 µM,72.1 µM and > 100 µM,> 100 µM,> 100 µM,> 100 µM,> 100 µM,> 100 µM,16.4 µM and > 100 µM,79.1 µM and > 100 µM,,,,
C/C(=C\c1ccccc1)C(=O)CCN1CCOCC1,33.4 µM,,35.2 µM,35.3 µM,36.1 µM,,33.8 µM,35.4 µM,,33.3 µM,36.1 µM,> 55.1 µM,32.8 µM,
C=C1C(O)C2(O)OCC34C(CC5C(C)=CC(=O)C(O)C5(C)C23)OC(=O)C(OC(=O)C/C=C(\C)CCCCC)C14 (stereo not drawn),0.159 µM,,0.0161 µM,,0.199 µM,,0.0173 µM,0.0373 µM,,0.0232 µM,,0.454 µM,0.016 µM,
COc1cc(/C=C/C(=O)O)ccc1C(=O)O/C=C/c1ccccc1,> 100 µM,,> 100 µM,> 100 µM,> 100 µM,,> 100 µM,> 100 µM,,> 100 µM,> 100 µM,68.9 µM,> 100 µM,
CC(C)(C)C1=Cc2cc3cc(C(C)(C)C)[nH]c(=O)c3cc2S(=O)(=O)N1,> 100 µM,,44.4 µM,,,76.7 µM,40.7 µM,> 100 µM,,,,,,
CCN(CC)CCNc1ccc2nnn3c4ccc(OC)cc4c(=O)c1c23,22 µM,,21.2 µM,,20 µM,21.4 µM,26.3 µM,25.8 µM,,,,,,16.3 µM
C=C1C(=O)OC2/C=C(\CO)C(OC(C)=O)CC(O)/C(C)=C/C(OC(=O)C(C)CC)C12 (stereo not drawn),26.5 µM,,> 56.8 µM,38 µM,58.6 µM,28.3 µM,33 µM,42.9 µM,,29.7 µM,,,,> 100 µM
CCC(C(=O)O)c1ccc(OCc2ccccc2)cc1 (stereo not drawn),> 100 µM,,> 100 µM,> 100 µM,> 100 µM,> 100 µM,,> 100 µM,,> 100 µM,,,,
CN(C)C(CN)CC1=C(CC(CN)N(C)C)CCC1 (stereo not drawn),> 100 µM,,> 100 µM,> 100 µM,> 100 µM,,> 100 µM,> 100 µM,,> 100 µM,> 100 µM,> 100 µM,> 100 µM,
NC(=O)C(=O)N/N=C1/c2ccccc2CC1C1(O)C(=O)Nc2c(Cl)cc(Cl)cc21 (stereo not drawn),> 100 µM,,> 100 µM,> 100 µM,> 100 µM,,> 100 µM,> 100 µM,,> 100 µM,,,,
CCOC(=O)C1=C(C(C)=O)CSC(c2ccccc2)=N1,> 100 µM,,> 100 µM,> 100 µM,> 100 µM,,> 100 µM,> 100 µM,,> 100 µM,> 100 µM,> 100 µM,> 100 µM,
COc1cc(/C=C2\C(=O)N(C(=O)Cc3ccccc3)N=C2C)ccc1O,> 100 µM,,> 100 µM,> 100 µM,,,> 100 µM,> 100 µM,,> 100 µM,,,,
O=C(CP(=O)(O)O)c1cccs1,> 100 µM,,> 100 µM,> 100 µM,> 100 µM,> 100 µM,> 100 µM,> 100 µM,,,,,,
COCOc1ccc(OC)cc1,> 100 µM,,,> 100 µM,> 100 µM,,> 100 µM,> 100 µM,,> 100 µM,> 100 µM,> 100 µM,> 100 µM,
CCC12C[N+]3([O-])CCc4c([nH]c5ccccc45)C(C(=O)OC)(c4cc5c(cc4OC)N(C)C4C(O)(C(=O)OC)C(OC(C)=O)C6(CC)C=CCN7CCC54C76)CC(C3)C1O2 (stereo not drawn),30.9 µM,,4.28 µM,12.2 µM,1.52 µM,24.6 µM,16 µM,4.65 µM,,15.3 µM,,,,

# From PubChem BioAssay (NCI)
